Results published in patent US12286429B2, “5-oxo-1,2,3,5,8,8a-hexahydroindolizine-3-carboxamide derivatives useful as a factor XIa inhibitors” (Janssen Pharmaceutica NV, priority 2021, dated 2025).
pIC50: −log10 of the molar value.

How the values were obtained:
human plasma kallikrein = human plasma kallikrein (Homo sapiens, UniProt P03952); test: Kallikrein inhibition assay utilizing a quenched AMC peptide substrate (FLINT); format: biochemical; details: 11-point, 3-fold serial dilution, top 1 μM; 30 min preincubation; 2 nM kallikrein; 50 μM Z-Gly-Pro-Arg-AMC; kinetic reads over 30 min
Description: Biological Example 2: Kallikrein Inhibition Assay Utilizing a Quenched AMC Peptide Substrate
A fluorescence intensity (FLINT) based assay was used to monitor inhibition of human plasma kallikrein. The peptide substrate, Z-Gly-Pro-Arg-AMC (Purchased from Bachem; Catalog #I-1150) was chosen based on its relatively low KM for kallikrein which enables running the assay at lower substrate concentrations to control background fluorescence. The kinetic parameters for this substrate were determined by fitting titration data to the Michaelis-Menten equation yielding a KM=40 μM, kcat=0.76 s^−1, and kcat/KM=18932 M^−1s^−1.
The Kallikrein FLINT assay was used with the following Z-Gly-Pro-Arg-AMC assay buffer: 50 mM Tris, pH 7.5, 100 mM NaCl, 5 mM CaCl2, 0.1 mg/mL BSA, 0.03% CHAPS. Assay buffer was prepared by mixing all ingredients fresh. 2× Z-Gly-Pro-Arg-AMC peptide substrate was prepared by diluting 10 mM stock into 1× assay buffer for a 100 μM working concentration (50 μM final concentration). The 2× kallikrein stock solution was prepared by diluting 14.76 μM stock in 1× assay buffer for a 4 nM working stock solution (2 nM final concentration).
Test compound(s) were run in an 11-point, 3-fold serial dilution with a final top compound concentration of 1 μM. Final DMSO in assay was 2%. Plasma kallikrein was pre-incubated for 30-minute with compound and then 50 μM substrate was added to initiate the reaction. The assay was run with kinetic (KIN) reads at 5 min intervals over 30 minutes. The time course was linear using 2 nM kallikrein greater than 30 minutes. More specifically, the assay was run as follows: • 100 nL of 0.1 mM test compound was dispensed into black 384-well non-binding Greiner BioOne 784900 plate for 1 μM final concentration; • 5 μL of 1× assay buffer was dispensed to columns 24 (low control) and 5 μL 2× human kallikrein enzyme solution was dispensed to columns 1-23 (column 23 high control); • the plate was centrifuged with a “cover” plate at 500 rpm for 1 min • the plate was pre-incubated for 30 minutes at room temperature with plate covered; • 5 μL of 2× Z-Gly-Pro-Arg-AMC peptide substrate was dispensed into the entire plate, columns 1-24; • the plate was centrifuged with a “cover” plate at 500 rpm for 1 min; • the plate was read monitoring fluorescence intensity on the BMG PHERAStar at room temperature, using fluorescence module 340 nm/440 nm.
(§1) Percent inhibition (IC50) curves were generated per compound tested, and data was analyzed using a 4-parameter logistic fit using GeneData Screener. The relative fluorescence unit (RFU) values were normalized to percent inhibition using the following equation: % inhibition=((HC−LC)−(compound−LC)/(HC−LC))*100
where LC—low control=mean signal of […] 100% inhibition of human kallikrein enzyme; HC—high control=mean signal of […]+Z-Gly-Pro-Arg-AMC peptide substrate with DMSO only.
(§2) An 11-point dose response curve for the test compound(s) was generated using GENDATA to determine IC50 value based on the following equation: Y=Bottom+(Top−Bottom)/(1+10^((log IC50−X)*HillSlope))
(§3) where Y is the % inhibition in the presence of X inhibitor concentration, Top=high control=mean signal of human kallikrein enzyme+Z-Gly-Pro-Arg-AMC peptide substrate with DMSO only; Bottom=low control—mean signal of no human kallikrein enzyme or 100% inhibition of human kallikrein enzyme; HillSlope—Hill coefficient; and IC50=concentration of compound with 50% inhibition in relation to top/high control.

Factor XIa = Factor XIa (Homo sapiens, UniProt P03951); test: Factor XIa inhibition assay utilizing a fluorophore-quencher pair peptide substrate (FLINT); format: biochemical; details: 11-point, 3-fold serial dilution, top 100 nM; 30 min preincubation; 15 μM 5Fam-KLTRAETV-K5Tamra substrate; kinetic reads over 30 min; read-out: FXIa Inhibition IC50
Text: Biological Example 1: Factor XIa Inhibition Assay Utilizing a Fluorophore-Quencher Pair Peptide Substrate
A fluorescence intensity (FLINT) based assay was used to monitor inhibition of Factor XIa. The peptide substrate, 5Fam-KLTRAETV-K5Tamra (purchased from New England Peptide) was chosen based on the FXI sequence. Conversion of zymogen FXI to its activated form, FXIa, occurs by proteolytic cleavage by […] at two sites, Arg146 and Arg180. The custom peptide used in this assay was based on the Arg146 cleavage site of FXI. The peptide substrate was designed with a fluorophore-quencher pair, where the fluorescence is quenched until FXIa cleaves the 8-mer peptide after the Arg residue.
The Factor XIa FLINT assay was used with the following 5Fam-KLTRAETV-K5Tamra assay buffer: 50 mM Tris, pH 7.5, 100 mM NaCl, 5 mM CaCl2, 0.1 mg/mL BSA, 0.03% CHAPS. Assay buffer was prepared by mixing all ingredients fresh. 5Fam-KLTRAETV-K5Tamra peptide substrate was first prepared at 10 mM in 100% DMSO, then diluted to 3 mM in 100% DMSO. Assay buffer was then added directly to the 3 mM stock of substrate to prepare the 30 μM 2× working concentration (15 μM final concentration). The 2× Factor XIa stock solution was prepared by diluting 6.562 μM stock in 1× assay buffer for a […].
Test compound(s) were run in an 11-point, 3-fold serial dilution with a final top compound concentration of 100 nM. Final DMSO in assay was 2%. FXIa was preincubated with compound for 30-minutes and then substrate was added to initiate the reaction. The assay was run with kinetic (KIN) reads at 5 min intervals over 30 minutes. […] More specifically, the assay was run as follows: • 100 nL of 0.01 mM test compound was dispensed into black 384-well non-binding Greiner BioOne 784900 plate for 0.1 μM final concentration, • 5 μL of 1× assay buffer was dispensed to column 24 (low control) and 5 μL 2× Factor XIa solution was dispensed to columns 1-23 (column 23 high control); • the plate was centrifuged with a “cover” plate at 500 rpm for 1 min • the plate was pre-incubated for 30 minutes at room temperature with plate covered; • 5 μL of 2×5Fam-KLTRAETV-K5Tamra peptide substrate was dispensed into the entire plate, columns 1-24; • the plate was centrifuged with a “cover” plate at 500 rpm for 1 min; • the plate was read monitoring fluorescence intensity on the BMG PHERAStar at room temperature, using fluorescence module 485 nm/520 nm.
as §1
where LC—low control=mean signal of no Factor XIa or 100% inhibition of Factor XIa; HC—high control=mean signal of Factor XIa+5Fam-KLTRAETV-K5Tamra peptide substrate with DMSO only.
as §2
as §3, with “Factor XIa+5Fam-KLTRAETV-K5Tamra” for “human kallikrein enzyme+Z-Gly-Pro-Arg-AMC”, “Factor XIa” for “human kallikrein enzyme”, “Factor XIa;” for “human kallikrein enzyme;”

Sequence of Factor XIa (P03951 388-625 limits assumed): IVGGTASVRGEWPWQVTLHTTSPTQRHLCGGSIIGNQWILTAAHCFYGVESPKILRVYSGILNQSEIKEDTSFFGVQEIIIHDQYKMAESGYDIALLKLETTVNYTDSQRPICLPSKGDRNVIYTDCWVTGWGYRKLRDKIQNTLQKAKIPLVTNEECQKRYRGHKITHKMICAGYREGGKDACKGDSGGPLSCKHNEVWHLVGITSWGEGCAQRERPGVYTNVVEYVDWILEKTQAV
Sequence of Factor XIa (P03951 19-387 partner limits assumed): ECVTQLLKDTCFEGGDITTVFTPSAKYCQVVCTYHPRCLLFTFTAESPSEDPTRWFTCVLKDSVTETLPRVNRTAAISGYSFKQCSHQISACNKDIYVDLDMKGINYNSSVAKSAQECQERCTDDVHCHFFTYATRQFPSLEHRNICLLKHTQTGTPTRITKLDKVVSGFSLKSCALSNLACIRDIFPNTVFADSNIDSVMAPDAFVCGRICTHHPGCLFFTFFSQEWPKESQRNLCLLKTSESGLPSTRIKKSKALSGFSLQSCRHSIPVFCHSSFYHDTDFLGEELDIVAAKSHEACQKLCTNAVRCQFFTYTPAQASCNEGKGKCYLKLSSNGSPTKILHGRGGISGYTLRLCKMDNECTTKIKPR
Sequence of human plasma kallikrein (P03952 391-638 limits assumed): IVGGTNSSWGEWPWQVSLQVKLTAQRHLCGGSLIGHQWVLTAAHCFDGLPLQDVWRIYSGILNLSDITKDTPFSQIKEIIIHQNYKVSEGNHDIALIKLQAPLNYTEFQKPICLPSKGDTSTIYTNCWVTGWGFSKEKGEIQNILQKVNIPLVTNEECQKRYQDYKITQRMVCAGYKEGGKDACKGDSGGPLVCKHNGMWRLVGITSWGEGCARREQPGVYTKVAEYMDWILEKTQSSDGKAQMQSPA
Sequence of human plasma kallikrein (P03952 20-390 partner limits assumed): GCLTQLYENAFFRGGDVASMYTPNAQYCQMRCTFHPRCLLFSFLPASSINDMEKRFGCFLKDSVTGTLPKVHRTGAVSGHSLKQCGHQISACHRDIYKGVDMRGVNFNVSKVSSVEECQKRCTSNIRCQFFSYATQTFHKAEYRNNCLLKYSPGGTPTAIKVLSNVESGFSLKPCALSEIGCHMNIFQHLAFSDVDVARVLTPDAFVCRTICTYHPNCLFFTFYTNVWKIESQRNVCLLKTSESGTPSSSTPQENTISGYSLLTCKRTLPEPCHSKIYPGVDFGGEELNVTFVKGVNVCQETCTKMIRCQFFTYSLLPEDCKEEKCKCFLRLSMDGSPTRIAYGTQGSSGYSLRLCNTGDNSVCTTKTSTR

Row | SMILES | pIC50 (human plasma kallikrein) | pIC50 (Factor XIa)
1 | O=C(Nc1ccc2c(c1)CN(O)C2=O)[C@@H]1CCC2CC(c3c(-n4cnnn4)ccc(Cl)c3F)=CC(=O)N21 (mixture of isomers) [ID No. 30, (3S)-7-(3-Chloro-2-fluoro-6-(1H-tetrazol-1-yl)phenyl)-N-(2-hydroxy-1-oxoisoindolin-5-yl)-5-oxo-1,2,3,5,8,8a-hexahydroindolizine-3-carboxamide] | 6.89 | < 7.02
2 | CN(O)C(=O)c1cc2cc(NC(=O)[C@@H]3CCC4CC(c5c(-n6cnnn6)ccc(Cl)c5F)=CC(=O)N43)ccc2[nH]1 (mixture of isomers) [ID No. 31, 5-((3S)-7-(3-Chloro-2-fluoro-6-(1H-tetrazol-1-yl)phenyl)-5-oxo-1,2,3,5,8,8a-hexahydroindolizine-3-carboxamido)-N-hydroxy-N-methyl-1H-indole-2-carboxamide] | 7.63 | 8.32
3 | O=C(O)/C=C/c1ccc(NC(=O)[C@@H]2CCC3CC(c4c(-n5cnnn5)ccc(Cl)c4F)=CC(=O)N32)cc1 (mixture of isomers) [ID No. 32, (E)-3-(4-((3S)-7-(3-Chloro-2-fluoro-6-(1H-tetrazol-1-yl)phenyl)-5-oxo-1,2,3,5,8,8a-hexahydroindolizine-3-carboxamido)phenyl)acrylic acid] | 7.84 | 8.80
4 | NC(=O)c1c(F)cc(NC(=O)[C@@H]2CCC3CC(c4c(-n5cnnn5)ccc(Cl)c4F)=CC(=O)N32)cc1F (mixture of isomers) [ID No. 33, (3S)—N-(4-Carbamoyl-3,5-difluorophenyl)-7-(3-chloro-2-fluoro-6-(1H-tetrazol-1-yl)phenyl)-5-oxo-1,2,3,5,8,8a-hexahydroindolizine-3-carboxamide] | 6.69 | 7.62
5 | CN(O)C(=O)c1ccc(NC(=O)[C@@H]2CCC3CC(c4c(-n5cnnn5)ccc(Cl)c4F)=CC(=O)N32)cc1 (mixture of isomers) [ID No. 34, (3S)-7-(3-Chloro-2-fluoro-6-(1H-tetrazol-1-yl)phenyl)-N-(4-(hydroxy(methyl)carbamoyl)phenyl)-5-oxo-1,2,3,5,8,8a-hexahydroindolizine-3-carboxamide] | 6.55 | 7.44
6 | O=C(O)c1c(F)cc(NC(=O)[C@@H]2CCC3CC(c4c(-n5cnnn5)ccc(Cl)c4F)=CC(=O)N32)cc1F (mixture of isomers) [ID No. 37, 4-[[(3S)-7-[3-Chloro-2-fluoro-6-(tetrazol-1-yl)phenyl]-5-oxo-2,3,8,8a-tetrahydro-1H-indolizine-3-carbonyl]amino]-2,6-difluoro-benzoic acid] | 6.55 | 8.24
7 | O=C(Nc1ccc(-c2nc(=O)o[nH]2)cc1)[C@@H]1CCC2CC(c3c(OC(F)F)ccc(Cl)c3F)=CC(=O)N21 (mixture of isomers) [ID No. 38, (3S)-7-(3-Chloro-6-(difluoromethoxy)-2-fluorophenyl)-5-oxo-N-(4-(5-oxo-2,5-dihydro-1,2,4-oxadiazol-3-yl)phenyl)-1,2,3,5,8,8a-hexahydroindolizine-3-carboxamide] | 6.38 | 7.40
8 | NC(=O)c1ccc(NC(=O)[C@@H]2CCC3CC(c4c(-n5cnnn5)ccc(Cl)c4F)=CC(=O)N32)cc1F (mixture of isomers) [ID No. 39, (3S)—N-(4-Carbamoyl-3-fluorophenyl)-7-(3-chloro-2-fluoro-6-(1H-tetrazol-1-yl)phenyl)-5-oxo-1,2,3,5,8,8a-hexahydroindolizine-3-carboxamide] | 7.28 | 8.12
9 | NC(=O)c1ccc(NC(=O)[C@@H]2CCC3CC(c4c(-n5cnnn5)ccc(Cl)c4F)=CC(=O)N32)cc1 (mixture of isomers) [ID No. 41, (3S)—N-(4-Carbamoylphenyl)-7-(3-chloro-2-fluoro-6-(1H-tetrazol-1-yl)phenyl)-5-oxo-1,2,3,5,8,8a-hexahydroindolizine-3-carboxamide] | 7.10 | 8.13
10 | O=C(Nc1ccc(-c2nc(=O)o[nH]2)c(F)c1)[C@@H]1CCC2CC(c3c(-n4cnnn4)ccc(Cl)c3F)=CC(=O)N21 (mixture of isomers) [ID No. 42, (3S)-7-[3-Chloro-2-fluoro-6-(tetrazol-1-yl)phenyl]-N-[3-fluoro-4-(5-oxo-2H-1,2,4-oxadiazol-3-yl)phenyl]-5-oxo-2,3,8,8a-tetrahydro-1H-indolizine-3-carboxamide] | 8.00 | 9.52
11 | CO[C@@H]1C[C@@H](C(=O)Nc2ccc3n[nH]cc3c2)N2C(=O)C=C(c3c(-n4cnnn4)ccc(Cl)c3F)CC12 (mixture of isomers) [ID No. 43, (1R,3S)-7-[3-Chloro-2-fluoro-6-(tetrazol-1-yl)phenyl]-N-(2H-indazol-5-yl)-1-methoxy-5-oxo-2,3,8,8a-tetrahydro-1H-indolizine-3-carboxamide] | 7.50 | 7.96
12 | CO[C@@H]1C[C@@H](C(=O)Nc2ccc3nn(C)cc3c2)N2C(=O)C=C(c3c(-n4cnnn4)ccc(Cl)c3F)CC12 (mixture of isomers) [ID No. 44, (1R,3S)-7-[3-Chloro-2-fluoro-6-(tetrazol-1-yl)phenyl]-1-methoxy-N-(2-methyl-2H-indazol-5-yl)-5-oxo-2,3,8,8a-tetrahydro-1H-indolizine-3-carboxamide] | 7.50 | 7.96
13 | CO[C@@H]1C[C@@H](C(=O)Nc2ccc3ncccc3c2)N2C(=O)C=C(c3c(-n4cnnn4)ccc(Cl)c3F)CC12 (mixture of isomers) [ID No. 45, (1R,3S)-7-[3-Chloro-2-fluoro-6-(tetrazol-1-yl)phenyl]-1-methoxy-5-oxo-N-(6-quinolyl)-2,3,8,8a-tetrahydro-1H-indolizine-3-carboxamide] | 7.85 | 8.11
